For one series, the target named is T1, GAL4-DAF-12 (Caenorhabditis elegans, UniProt G5EFF5).
T1 construct: 184-754aa (DAF-12); expressed in transfected cells; host or cells: HEK293
As to the kind of experiment: Co-transfection assay: GAL4-DAF-12 and GAL4-responsive luciferase reporter in HEK293 cells. The following applies: for DAF-9 independent activation of GAL4-DAF-12 (in words): 10 μM sterol, without DAF-9. The format is cell-based, C. elegans. On the technique in general: In a reporter assay the amount or activity of a reporter protein is the signal.

For another series, the system named is daf-9(dh6) nulls. As to the kind of experiment: Rescue assay with pure steroids, daf-9(dh6) nulls. The format is in vivo, C. elegans. The following applies: for effect of 26-hydroxy-4-cholesten-3-one on daf-9 nulls (in words): concentrations as high as 33 μM.
The target in series [1] is DAF-12 ligand binding domain (Caenorhabditis elegans, UniProt G5EFF5).
The subject of another series is daf-9(dh6) null worms. Briefly: Rescue of daf-9 null worms by extracts of sterols incubated with DAF-9 or control microsomes. The following applies: for complete rescue of Daf-c and Mig phenotypes, animals tested: DAF-9 microsome reactions (100 μM sterol) diluted 8-fold; for effect on daf-9 animals, DAF-9 microsomes (in words) / rescue of the Daf-c phenotypes: extracts from DAF-9 microsomes incubated with 100 μM sterol; for effect on daf-9 phenotypes, control microsomes (in words): extracts from control (hOR only) microsomes incubated with 100 μM sterol.

Series [2] deals with DAF-12 in the presence of DAF-9. As to the kind of experiment: Co-transfection assay: GAL4-DAF-12 reporter in HEK293 cells with co-transfected DAF-9. The series is classed as cell-based, C. elegans. The following applies: 10 μM sterol; fold induction of RLU compared to ethanol control. How it is done: To screen for sterol-derived ligands of DAF-12 a co-transfection assay in HEK293 cells was performed using a chimeric GAL4-DAF-12 receptor and a GAL4-responsive luciferase reporter. […] Our initial compound screen consisted of bile acids and known vertebrate steroid and endocrine hormones as these compounds are ligands for PXR, VDR and LXR, the closest vertebrate homologs of DAF-12 (Antebi et al., 2000; Mooijaart et al., 2005).

A further series addresses T2, mouse CYP27A1 (Mus musculus, UniProt Q9DBG1).
T2 construct: expressed in transfected cells; host or cells: HEK293
T2 sequence (Q9DBG1 33-533): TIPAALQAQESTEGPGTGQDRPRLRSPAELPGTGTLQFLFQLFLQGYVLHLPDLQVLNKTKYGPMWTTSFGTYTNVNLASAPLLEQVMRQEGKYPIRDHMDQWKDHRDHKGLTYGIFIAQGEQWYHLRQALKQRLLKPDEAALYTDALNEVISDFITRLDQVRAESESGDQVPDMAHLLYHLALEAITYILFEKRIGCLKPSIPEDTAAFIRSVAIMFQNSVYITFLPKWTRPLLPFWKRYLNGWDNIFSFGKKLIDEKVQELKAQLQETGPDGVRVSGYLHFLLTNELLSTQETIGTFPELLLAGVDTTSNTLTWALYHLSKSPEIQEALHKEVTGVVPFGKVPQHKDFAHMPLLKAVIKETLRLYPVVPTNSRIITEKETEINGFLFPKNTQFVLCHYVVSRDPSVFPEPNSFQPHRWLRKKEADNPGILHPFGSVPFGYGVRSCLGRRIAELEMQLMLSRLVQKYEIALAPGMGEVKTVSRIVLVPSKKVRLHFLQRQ
Briefly: Co-transfection of HEK293 cells with GAL4-DAF-12, mouse CYP27A1 and bovine adrenodoxin. The format is cell-based. The following applies: sterol 25 μM; bovine adrenodoxin co-transfected.

A further series has as its target T3, human CYP27A1 (Homo sapiens, UniProt Q02318).
T3 construct: expressed in transfected cells; host or cells: HEK293
T3 sequence (Q02318 34-531): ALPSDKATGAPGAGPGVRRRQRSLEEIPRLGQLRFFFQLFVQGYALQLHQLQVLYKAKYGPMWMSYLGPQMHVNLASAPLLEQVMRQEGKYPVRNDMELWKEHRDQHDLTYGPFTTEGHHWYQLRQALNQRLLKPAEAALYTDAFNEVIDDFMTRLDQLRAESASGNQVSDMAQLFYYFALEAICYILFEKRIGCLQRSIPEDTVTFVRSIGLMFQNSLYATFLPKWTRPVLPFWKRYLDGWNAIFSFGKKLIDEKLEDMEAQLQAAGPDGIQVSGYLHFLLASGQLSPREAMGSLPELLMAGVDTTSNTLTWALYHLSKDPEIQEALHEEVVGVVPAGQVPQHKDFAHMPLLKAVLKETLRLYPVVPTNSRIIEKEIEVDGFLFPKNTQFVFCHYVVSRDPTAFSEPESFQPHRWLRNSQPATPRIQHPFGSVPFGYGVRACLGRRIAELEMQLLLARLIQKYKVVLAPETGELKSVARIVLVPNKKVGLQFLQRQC
Briefly: Co-transfection of HEK293 cells with GAL4-DAF-12, human CYP27A1 and bovine adrenodoxin. The series is classed as cell-based. The following applies: sterol 25 μM; bovine adrenodoxin co-transfected.

The subject of series [3] is DAF-12 homolog with co-transfected DAF-9. As to the kind of experiment: Activation of the Anycolostoma ceylancium DAF-12 homolog with co-transfection of DAF-9. The format is cell-based. An excerpt:
This invention contemplates the development of strategies against nematodes, including but not limited to parasitic nematodes. Many parasitic nematodes contain homologs of the orphan nuclear receptor DAF-12, which, as described above, is a key regulator of reproductive development in C. elegans. See, e.g., Siddiqui et al. (2000). In accordance with the present invention, therefore, ligands that are operative in the DAF-9/DAF-12 pathway in C. elegans will affect the life cycles of parasitic nematodes similarly. The inventors have discovered in Anycolostoma ceylancium, for example, a DAF-12 homolog that is activated by DAF-12 ligands, identified pursuant to this invention.

A further series relates to C. elegans. The following applies: in vivo; cited from earlier work.
[4] abbreviates: control microsome reactions (100 μM sterol) diluted 8-fold.
[5] abbreviates: extracts from DAF-9 microsomes incubated with sterol.

The term EC50 denotes the midpoint of the concentration-response curve. Low readings indicate higher potency in that assay, high ones lower potency in that assay.

DAF-12 ligand binding domain, sequence (G5EFF5 507-753): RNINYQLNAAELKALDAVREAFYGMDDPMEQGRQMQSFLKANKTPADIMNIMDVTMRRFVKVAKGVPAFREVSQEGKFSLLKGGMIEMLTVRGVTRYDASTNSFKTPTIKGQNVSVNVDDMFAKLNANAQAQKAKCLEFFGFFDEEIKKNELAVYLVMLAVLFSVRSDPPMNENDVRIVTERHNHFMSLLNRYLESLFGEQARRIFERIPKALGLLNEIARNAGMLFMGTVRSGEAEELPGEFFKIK
T1 sequence (G5EFF5 184-753): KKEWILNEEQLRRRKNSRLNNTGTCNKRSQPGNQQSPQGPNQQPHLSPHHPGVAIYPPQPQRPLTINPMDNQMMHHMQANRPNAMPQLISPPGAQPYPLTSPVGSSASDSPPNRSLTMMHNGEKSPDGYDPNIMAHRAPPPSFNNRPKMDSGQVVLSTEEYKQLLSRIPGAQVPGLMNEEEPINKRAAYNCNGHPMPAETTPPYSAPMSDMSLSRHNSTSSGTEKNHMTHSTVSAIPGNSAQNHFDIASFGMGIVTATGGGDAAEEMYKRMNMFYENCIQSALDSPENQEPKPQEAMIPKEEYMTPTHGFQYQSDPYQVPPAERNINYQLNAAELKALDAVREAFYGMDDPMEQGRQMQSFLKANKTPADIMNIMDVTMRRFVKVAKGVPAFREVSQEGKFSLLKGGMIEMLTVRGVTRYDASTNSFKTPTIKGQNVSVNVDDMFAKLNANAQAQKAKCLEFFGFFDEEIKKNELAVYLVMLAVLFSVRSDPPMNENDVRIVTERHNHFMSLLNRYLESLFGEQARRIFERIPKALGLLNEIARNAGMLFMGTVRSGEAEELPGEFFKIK
Procedure for daf-9(dh6) null worms: Microsomes containing hOR or hOR and Daf-9 generated from Sf9 cells were thawed on ice and added to a final concentration of 0.5 mg/mL in 0.1M potassium phosphate buffer in the presence of an NADPH regenerating system (50 U/mL DL-isocitrate dehydrogenase, 0.1 M isocitrate and 0.1 M MgCl2). Substrates were added from stock solutions at 10^−2 M to a final concentration of 100 μM (final reaction volume of 0.5 mL). The mixture was preincubated for 3 min at 37° C. and the reaction was initiated by the addition of NADPH (1 mM). After 16 hrs, the reactions were stopped by extraction with 2×2 mL of methyl-tert-butyl-ether and the top layers were combined and dried under nitrogen. In some experiments, 0.5 μg of 1,4-cholestadiene-3-one was added as an internal standard for the extraction.
Individual 3-keto sterols and their respective 3β-hydroxy sterols were incubated with Sf9 cell microsomes co-expressing DAF-9 and the human P450 oxidoreductase (hOR). As a control, microsomes from cells expressing hOR alone were used.
Procedure for human CYP27A1: (§1) Therefore, the ability of CYP27A1 to metabolize 4-cholesten-3-one into a DAF-12 activator was tested.
Procedure for mouse CYP27A1: as §1

On to `C[C@@H](CO)CCC[C@@H](C)[C@H]1CC[C@H]2[C@@H]3CCC4=CC(=O)CC[C@]4(C)[C@H]3CC[C@]12C` [(25R),26-hydroxy-4-cholesten-3-one], for which, at GAL4-DAF-12, a half-maximal effect (EC50) was put at 2 µM and the “DAF-9 independent activation of GAL4-DAF-12 (in words)” value (shortened to “DAF-9 independent activation”) is recorded as “strongly active”. In addition, the “effect of 26-hydroxy-4-cholesten-3-one on daf-9 nulls (in words)” value with daf-9(dh6) nulls was “had no effect”. Further, the “increase in binding units compared to vehicle control” value in series [1] (1 μM sterol) is given as 2 fold. Also, in the series on daf-9(dh6) null worms, the “complete rescue of Daf-c and Mig phenotypes, animals tested” value stood at 100%. Further, in the series with daf-9(dh6) null worms (setting [4]), the “daf-9 rescue by extracts from control microsome incubations (in words)” value was “had no biological effect”.

`CC(C)CCC[C@@H](C)[C@H]1CC[C@H]2C3=CC[C@H]4[C@H](C)C(=O)CC[C@]4(C)[C@H]3CC[C@]12C` [lophenone]: at GAL4-DAF-12, the “DAF-9 independent activation” value is recorded as “required the presence of DAF-9”. In addition, the “activation of DAF-12 upon co-transfection with DAF-9” value (“activation … with DAF-9” below) in series [2] amounted to 103 fold. In addition, in the series on daf-9(dh6) null worms, the “effect on daf-9 animals, DAF-9 microsomes (in words)” value (“effect on daf-9 animals” for short) is “resulted in rescue of Daf-c, none of these animals were normal” and the “effect on daf-9 phenotypes, control microsomes (in words)” value (from here on “effect on daf-9 phenotypes”) is on record as “dependent on DAF-9”. For the same molecule, in the series on daf-9(dh6) null worms (setting [5]), the “animals that failed to enter dauer, had molting defects, or were dead” value is on record as 42% and the “animals that were Mig” value is reported as 58%.

Consider `CC(C)CCC[C@@H](C)[C@H]1CC[C@H]2C3=CC[C@H]4CC(=O)CC[C@]4(C)[C@H]3CC[C@]12C` [lathosterone], for which, at GAL4-DAF-12, the “DAF-9 independent activation” value was “required the presence of DAF-9”. Further, the “activation … with DAF-9” value in series [2] is given as 433 fold. Besides, the “activation of GAL4-DAF-12 with co-transfected mouse CYP27A1” value on mouse CYP27A1 was “had no effect”. Also, the “activation of GAL4-DAF-12 with co-transfected human CYP27A1” value on human CYP27A1 was “had no effect”. Also, the “ligand binding activity of DAF-9 microsomes incubated with sterol” value in [1] (1:5000 dilution of DAF-9 microsomes incubated with 100 μM sterol) is recorded as “strong ligand binding activity”. Further, in the series on daf-9(dh6) null worms, the “effect on daf-9 animals” value is reported as “indistinguishable from wild-type adults”; the “rescue of the Daf-c phenotypes” value worked out at 100%; the “effect on daf-9 phenotypes” value is given as “did not rescue any daf-9 phenotypes”. Moreover, the “activation of the DAF-12 homolog with co-transfection of DAF-9” value in [3] is recorded as “causes activation of this DAF-12 homolog”.

As for `CC(C)CCC[C@@H](C)[C@H]1CC[C@H]2[C@@H]3CCC4=CC(=O)CC[C@]4(C)[C@H]3CC[C@]12C` [4-cholesten-3-one], the “DAF-9 independent activation” value at GAL4-DAF-12 was “required the presence of DAF-9”. Moreover, the “activation … with DAF-9” value in series [2] worked out at 109 fold. In addition, the “activation of GAL4-DAF-12 with co-transfected mouse CYP27A1” value on mouse CYP27A1 is reported as “potent activation”. Moreover, the “activation of GAL4-DAF-12 with co-transfected human CYP27A1” value on human CYP27A1 is “potent activation”. Further, the “binding (in words)” value in series [1] (1 μM sterol) was “no significant binding”. In the series on daf-9(dh6) null worms, the “effect on daf-9 animals” value is on record as “indistinguishable from wild-type adults”; the “rescue of the Daf-c phenotypes” value was 100%; the “effect on daf-9 phenotypes” value is “did not rescue any daf-9 phenotypes”.

In the case of `CC(C)CCC[C@@H](C)[C@H]1CC[C@H]2C3=CC[C@H]4C[C@@H](O)CC[C@]4(C)[C@H]3CC[C@]12C` [lathosterol], the “effect on the nematode life cycle as the sole dietary sterol” value in the series with C. elegans is given as “supported full reproductive growth”. Moreover, in the series with daf-9(dh6) null worms, the “effect on daf-9 animals” value was “exhibited the Mig phenotype and were sterile”; the “rescue of the Daf-c phenotypes” value stood at 83%; the “effect on daf-9 phenotypes” value is “no effect”.

Turning to `CC(C)CCC[C@@H](C)[C@H]1CC[C@H]2C3=CC[C@H]4[C@H](C)[C@@H](O)CC[C@]4(C)[C@H]3CC[C@]12C` [lophenol], in the series on C. elegans, the “effect on the nematode life cycle as the sole dietary sterol” value is given as “constitutively entered dauer diapause”. Moreover, in the series with daf-9(dh6) null worms, the “effect on daf-9 animals” value is given as “had no effect” and the “effect on daf-9 phenotypes” value is reported as “had no effect”.

Consider `C[C@H](CO)CCC[C@@H](C)[C@H]1CC[C@H]2[C@@H]3CCC4=CC(=O)CC[C@]4(C)[C@H]3CC[C@]12C` [(25S),26-hydroxy-4-cholesten-3-one], for which, on GAL4-DAF-12, a half-maximal response (EC50) required 1 µM and the “DAF-9 independent activation” value was “strongly active”. The “effect of 26-hydroxy-4-cholesten-3-one on daf-9 nulls (in words)” value in the series on daf-9(dh6) nulls is “still exhibit Mig and/or molting defects, and sterility”. For the same molecule, in the series on daf-9(dh6) nulls (n>60), the “worms that bypass dauer” value was 93%. Besides, the “binding (in words)” value in [1] (1 μM sterol) was “no significant binding”. In addition, in the series with daf-9(dh6) null worms, the “complete rescue of Daf-c and Mig phenotypes, animals tested” value stood at 100%. In addition, in the series with daf-9(dh6) null worms (setting [4]), the “daf-9 rescue by extracts from control microsome incubations (in words)” value is “only an incomplete rescue”, the molt defects turned out to be 10% and the “sterile Mig adults” value is listed as 75%.
